Measurements taken from patent US11634418B2, “Amino acid compounds and methods of use” (Pliant Therapeutics, Inc., priority 2016, dated 2023).

Target: recombinant human integrin αvβ6 (Homo sapiens (Human), UniProt P06756+P18564)
Assay: Solid Phase Integrin αvβ6 Binding Assay
Settings: inhibition of recombinant TGFβ1 LAP binding to coated integrin; IC50 given as range
Description: Microplates were coated with recombinant human integrin αvβ6 (2 ug/ml) in PBS (100 ul/well 25° C. overnight). The coating solution was removed, washed with wash buffer (0.05% Tween 20; 0.5 mM MnCl2; in 1×TBS). Plate was blocked with 200 ul/well of Block Buffer (1% BSA; 5% sucrose; 0.5 mM MnCl2; in 1×TBS) at 37° C. for 2 h. Dilutions of testing compounds and recombinant TGFβ1 LAP (0.67 ug/ml) in binding buffer (0.05% BSA; 2.5% sucrose; 0.5 mM MnCl2; in 1×TBS) were added. The plate was incubated for 2 hours at 25° C., washed, and incubated for 1 hour with Biotin-Anti-hLAP. Bound antibody was detected by peroxidase-conjugated streptavidin. The IC50 values for testing compounds were calculated by a four-parameter logistic regression.

recombinant human integrin αvβ6, sequence (P06756 31-992): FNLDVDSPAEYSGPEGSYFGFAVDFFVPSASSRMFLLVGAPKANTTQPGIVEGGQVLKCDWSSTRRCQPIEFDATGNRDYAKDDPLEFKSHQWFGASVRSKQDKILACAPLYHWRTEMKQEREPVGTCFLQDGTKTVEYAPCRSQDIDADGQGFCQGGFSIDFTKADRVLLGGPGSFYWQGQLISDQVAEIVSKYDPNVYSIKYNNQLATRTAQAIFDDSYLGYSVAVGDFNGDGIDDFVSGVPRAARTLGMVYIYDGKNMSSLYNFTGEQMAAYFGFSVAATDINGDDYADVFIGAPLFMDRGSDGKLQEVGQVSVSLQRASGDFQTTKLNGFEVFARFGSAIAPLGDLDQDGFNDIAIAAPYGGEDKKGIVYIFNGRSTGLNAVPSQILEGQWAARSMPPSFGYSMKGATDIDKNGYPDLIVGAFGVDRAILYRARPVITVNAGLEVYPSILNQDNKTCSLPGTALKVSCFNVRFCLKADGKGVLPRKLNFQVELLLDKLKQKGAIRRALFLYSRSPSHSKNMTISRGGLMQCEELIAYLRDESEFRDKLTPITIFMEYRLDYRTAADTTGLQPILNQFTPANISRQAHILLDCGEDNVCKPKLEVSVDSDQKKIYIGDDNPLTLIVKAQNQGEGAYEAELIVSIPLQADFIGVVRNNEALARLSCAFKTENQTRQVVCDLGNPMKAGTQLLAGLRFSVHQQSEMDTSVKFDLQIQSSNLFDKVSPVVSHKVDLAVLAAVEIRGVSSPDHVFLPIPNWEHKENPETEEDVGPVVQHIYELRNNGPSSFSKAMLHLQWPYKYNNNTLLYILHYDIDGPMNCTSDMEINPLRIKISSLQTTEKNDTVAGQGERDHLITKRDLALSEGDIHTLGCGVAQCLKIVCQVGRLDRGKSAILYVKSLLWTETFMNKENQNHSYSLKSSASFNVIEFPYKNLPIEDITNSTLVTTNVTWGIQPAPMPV
recombinant human integrin αvβ6, sequence (P18564 22-707): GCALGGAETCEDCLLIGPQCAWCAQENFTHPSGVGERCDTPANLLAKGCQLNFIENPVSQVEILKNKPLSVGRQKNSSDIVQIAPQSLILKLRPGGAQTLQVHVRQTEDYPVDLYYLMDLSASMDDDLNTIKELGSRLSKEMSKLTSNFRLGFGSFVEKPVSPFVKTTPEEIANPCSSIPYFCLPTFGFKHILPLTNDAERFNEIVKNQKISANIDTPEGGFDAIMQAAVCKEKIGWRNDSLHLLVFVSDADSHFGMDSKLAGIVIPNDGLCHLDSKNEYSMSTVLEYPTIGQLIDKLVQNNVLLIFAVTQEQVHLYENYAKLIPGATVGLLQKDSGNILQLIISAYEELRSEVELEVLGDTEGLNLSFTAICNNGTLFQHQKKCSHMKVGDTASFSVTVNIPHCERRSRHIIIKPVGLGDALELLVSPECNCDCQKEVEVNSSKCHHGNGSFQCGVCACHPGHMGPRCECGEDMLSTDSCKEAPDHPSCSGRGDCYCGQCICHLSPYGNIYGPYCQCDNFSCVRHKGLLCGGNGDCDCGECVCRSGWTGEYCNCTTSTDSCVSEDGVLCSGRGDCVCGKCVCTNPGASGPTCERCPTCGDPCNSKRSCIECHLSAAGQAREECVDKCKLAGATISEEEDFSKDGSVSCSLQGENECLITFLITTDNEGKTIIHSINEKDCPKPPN

## Cc1cc(C)n(-c2cccc(C(=O)N[C@@H](CCN3CC(CCc4ccc5c(n4)NCCC5)CC(F)(F)C3)C(=O)O)c2)n1 (stereo partly shown) [Compound 42]
  IC50: 250 to 4000 nM

## NCCCc1ccc(CCC2CC3CCC2N3CC[C@H](NC(=O)c2cc(F)cc(C(F)(F)F)c2)C(=O)O)nc1 (stereo partly shown) [Compound 141]
  IC50: < 50 nM

## O=C(O)[C@H](CCN1CC(CCc2ccc3c(n2)NCCC3)C1)NC(=O)[C@@H]1CCCN1Cc1ccccc1 [Compound 143]
  IC50: > 1000 nM

## CC(C)(O)CN1CCCC1C(=O)N[C@@H](CCN1CC(OCCc2ccc3c(n2)NCCC3)C1)C(=O)O (stereo partly shown) [Compound 134]
  IC50: 250 to 1000 nM

## O=C(N[C@@H](CCN1CCC[C@@](F)(CCc2ccc3c(n2)NCCC3)C1)C(=O)O)C1CCC(F)(F)CC1 [Compound 107]
  IC50: 50 nM

## Cn1ncc2ccc(C(=O)N[C@@H](CCN3CCC[C@@](F)(CCc4ccc5c(n4)NCCC5)C3)C(=O)O)cc21 [Compound 106]
  IC50: 50 nM

## O=C(N[C@@H](CCN1CCC(NCc2ccc3c(n2)NCCC3)CC1)C(=O)O)C1CCC(F)(F)CC1 [Compound 34]
  IC50: > 1000 nM
